Measured values from US5543415A, “Antidepressants” (Kyowa Hakko Kogyo Co., Ltd., priority 1992, dated 1996).

Assays:
[1] = test system: clonidine-induced aggressive behavior; experiment: Effect on Clonidine-Induced Aggressive Behavior (number of biting attacks during 30 minutes); format: in vivo, male ddY mice; details: po; for Number of the Biting Attacks (mean ± S.E.M.), Test Compound-Treated Group: 60 min before clonidine 20 mg/kg ip, 30 min count
Procedure: The effect of a test compound on the aggressive behavior induced by intraperitoneal administration of clonidine was investigated. […] The experiment was performed by using several groups of male ddY mice (weighing 20 to 25 g, Japan SLC), each group consisting of two mice. The test compound was suspended in injectable distilled water (Otsuka Pharmaceutical Co., Ltd.) containing Tween 80 [polyoxyethylene (20) sorbitan monooleate]. Clonidine hydrochloride (Sigma Co.) was dissolved in physiological saline solution (Otsuka Pharmaceutical Co., Ltd.). The test compound suspension and the control suspension were orally administered to separate groups of the mice (0.1 ml per 10 g of body weight). Sixty minutes after the oral administration of the test compound, clonidine hydrochloride (20 mg/kg) was intraperitoneally injected. The number of biting attacks during 30 minutes after clonidine treatment was counted. The effect of the compound was evaluated by comparing the average number of biting attacks of the test compound-administered groups with that of control groups (Statistical comparison: Student's t-test).

ddY-strain male mice = experiment: Acute Toxicity Test (minimum lethal dose, oral); format: in vivo; details: seven days after administration
Procedure: Test compounds were orally administered to groups of ddY-strain male mice weighing 20±1 g, each group consisting of three mice. Seven days after the administration, minimum lethal dose (MLD) of each compound was determined by observing the mortality.

[2] = Mus musculus, 0.63 mg/kg, read-out: Number of the Attacks of Test Compound-Treated Group/Number of the Attacks of Control Group
[3] = Mus musculus, 10 mg/kg, read-out: Number of the Attacks of Test Compound-Treated Group/Number of the Attacks of Control Group
[4] = Mus musculus, 2.5 mg/kg, read-out: Number of the Attacks of Test Compound-Treated Group/Number of the Attacks of Control Group

Structure (SMILES): CCn1c(=O)c2c(nc(/C=C/c3ccc(OC)c(OC)c3OC)n2C)n(CC)c1=O [Compound 80, (E)-1,3-Diethyl-7-methyl-8-(2,3,4-trimethoxystyryl)xanthine]
- Number of the Biting Attacks (mean ± S.E.M.), Test Compound-Treated Group ([1]; 0.63 mg/kg): 30.3 ± 7.00
- Number of the Biting Attacks (mean ± S.E.M.), Test Compound-Treated Group ([1]; 2.5 mg/kg): 59.3 ± 12.37
- Number of the Biting Attacks (mean ± S.E.M.), Test Compound-Treated Group ([1]; 10 mg/kg): 67.5 ± 9.35
- response vs control in vivo at 0.63 mg/kg [1, 2]: 470%
- MLD (minimum lethal dose) (ddY-strain male mice): > 300 mg/kg

Structure (SMILES): CCn1c(=O)c2c(nc(/C=C/c3ccc(OC)c(F)c3)n2C)n(CC)c1=O [Compound 173, (E)-1,3-Diethyl-8-(3-fluoro-4-methoxystyryl)-7-methylxanthine]
- Number of the Biting Attacks (mean ± S.E.M.), Test Compound-Treated Group ([1]; 10 mg/kg): 46.8 ± 14.89
- response vs control in vivo at 10 mg/kg [1, 3]: 620%
- MLD (minimum lethal dose) (ddY-strain male mice): > 100 mg/kg

Structure (SMILES): C=CCn1c(=O)c2c(nc(/C=C/c3ccc(OC)c(OC)c3)n2C)n(CC=C)c1=O [Compound 70, (E)-1,3-Diallyl-8-(3,4-dimethoxystyryl)-7-methylxanthine]
- Number of the Biting Attacks (mean ± S.E.M.), Test Compound-Treated Group ([1]; 10 mg/kg): 60.3 ± 11.71
- response vs control in vivo at 10 mg/kg [1, 3]: 790%
- MLD (minimum lethal dose) (ddY-strain male mice): > 100 mg/kg

Structure (SMILES): CCn1c(=O)c2c(nc(/C=C/c3ccc(O)cc3)n2C)n(CC)c1=O [Compound 184, (E)-1,3-Diethyl-8-(4-hydroxystyryl)-7-methylxanthine]
- Number of the Biting Attacks (mean ± S.E.M.), Test Compound-Treated Group ([1]; 10 mg/kg): 77.1 ± 11.47
- MLD (minimum lethal dose) (ddY-strain male mice): > 100 mg/kg

Structure (SMILES): CCn1c(=O)c2c(nc(/C=C/c3cc(OC)cc(OC)c3)n2C)n(CC)c1=O [Compound 130, (E)-8-(3,5-Dimethoxystyryl)-1,3-diethyl-7-methyl-xanthine]
- Number of the Biting Attacks (mean ± S.E.M.), Test Compound-Treated Group ([1]; 10 mg/kg): 52.2 ± 11.79
- response vs control in vivo at 10 mg/kg [1, 3]: 480%
- MLD (minimum lethal dose) (ddY-strain male mice): > 300 mg/kg

Structure (SMILES): CCOc1ccc(/C=C/c2nc3c(c(=O)n(CC)c(=O)n3CC)n2C)cc1 [Compound 124, (E)-8-(4-Ethoxystyryl)-1,3-diethyl-7-methylxanthine]
- Number of the Biting Attacks (mean ± S.E.M.), Test Compound-Treated Group ([1]; 2.5 mg/kg): 85.8 ± 12.41
- Number of the Biting Attacks (mean ± S.E.M.), Test Compound-Treated Group ([1]; 10 mg/kg): 50.5 ± 17.7
- MLD (minimum lethal dose) (ddY-strain male mice): > 300 mg/kg

Structure (SMILES): CCCCOc1ccc(/C=C/c2nc3c(c(=O)n(CC)c(=O)n3CC)n2C)cc1 [Compound 148, (E)-8-(4-Butoxystyryl)-1,3-diethyl-7-methylxanthine]
- Number of the Biting Attacks (mean ± S.E.M.), Test Compound-Treated Group ([1]; 10 mg/kg): 46.3 ± 9.40
- MLD (minimum lethal dose) (ddY-strain male mice): > 100 mg/kg

Structure (SMILES): CCCn1c(=O)c2c(nc(/C=C/c3ccc(OCC)cc3)n2C)n(CCC)c1=O [Compound 49, (E)-8-(4-Ethoxystyryl)-7-methyl-1,3-dipropylxanthine]
- Number of the Biting Attacks (mean ± S.E.M.), Test Compound-Treated Group ([1]; 10 mg/kg): 81.5 ± 13.97
- MLD (minimum lethal dose) (ddY-strain male mice): > 300 mg/kg

Structure (SMILES): CCn1c(=O)c2c(nc(/C=C/c3ccc(OC)cc3OC)n2C)n(CC)c1=O [Compound 78, (E)-8-(2,4-Dimethoxystyryl)-1,3-diethyl-7-methylxanthine]
- Number of the Biting Attacks (mean ± S.E.M.), Test Compound-Treated Group ([1]; 10 mg/kg): 32.1 ± 7.31
- response vs control in vivo at 10 mg/kg [1, 3]: 610%
- MLD (minimum lethal dose) (ddY-strain male mice): > 300 mg/kg

Structure (SMILES): CCn1c(=O)c2c(nc(/C=C/c3ccc(F)cc3)n2C)n(CC)c1=O [Compound 150, (E)-1,3-Diethyl-8-(4-fluorostyryl)-7-methylxanthine]
- Number of the Biting Attacks (mean ± S.E.M.), Test Compound-Treated Group ([1]; 10 mg/kg): 42.1 ± 10.18
- MLD (minimum lethal dose) (ddY-strain male mice): > 100 mg/kg

Structure (SMILES): C=CCn1c(=O)c2c(nc(/C=C/c3cc(OC)c(OC)c(OC)c3)n2C)n(CC=C)c1=O [Compound 7, (E)-1,3-Diallyl-7-methyl-8-(3,4,5-trimethoxystyryl)xanthine]
- Number of the Biting Attacks (mean ± S.E.M.), Test Compound-Treated Group ([1]; 2.5 mg/kg): 40.1 ± 8.36
- response vs control in vivo at 2.5 mg/kg [1, 4]: 640%
- MLD (minimum lethal dose) (ddY-strain male mice): > 300 mg/kg

Structure (SMILES): COc1cc(/C=C/c2nc3c(c(=O)n(C)c(=O)n3C)n2C)cc(OC)c1OC [Compound 2, (E)-8-(3,4,5-trimethoxystyryl)caffeine]
- Number of the Biting Attacks (mean ± S.E.M.), Test Compound-Treated Group ([1]; 1.25 mg/kg): 29.0 ± 7.9
- response vs control in vivo at 1.25 mg/kg ([1]; Mus musculus, 1.25 mg/kg, read-out: Number of the Attacks of Test Compound-Treated Group/Number of the Attacks of Control Group): 470%
- MLD (minimum lethal dose) (ddY-strain male mice): > 300 mg/kg

Structure (SMILES): CCn1c(=O)c2c(nc(/C=C/c3ccccc3F)n2C)n(CC)c1=O [Compound 168, (E)-1,3-Diethyl-8-(2-fluorostyryl)-7-methylxanthine]
- Number of the Biting Attacks (mean ± S.E.M.), Test Compound-Treated Group ([1]; 10 mg/kg): 53.9 ± 8.59
- response vs control in vivo at 10 mg/kg [1, 3]: 710%
- MLD (minimum lethal dose) (ddY-strain male mice): > 100 mg/kg

Structure (SMILES): CCCn1c(=O)c2c(nc(/C=C/c3ccc4c(c3)OCCO4)n2C)n(CCC)c1=O [Compound 18, (E)-8-[2-(1,4-Benzodioxan-6-yl)vinyl]-7-methyl-1,3-dipropylxanthine]
- Number of the Biting Attacks (mean ± S.E.M.), Test Compound-Treated Group ([1]; 2.5 mg/kg): 8.6 ± 3.74
- Number of the Biting Attacks (mean ± S.E.M.), Test Compound-Treated Group ([1]; 10 mg/kg): 26.2 ± 7.32
- response vs control in vivo at 2.5 mg/kg [1, 4]: 390%
- response vs control in vivo at 10 mg/kg [1, 3]: 640%
- MLD (minimum lethal dose) (ddY-strain male mice): > 300 mg/kg

Structure (SMILES): CCn1c(=O)c2c(nc(/C=C/c3ccc(OC)c(C)c3)n2C)n(CC)c1=O [Compound 175, (E) -1,3-Diethyl-8-(4-methoxy-3-methylstyryl)-7-methylxanthine]
- Number of the Biting Attacks (mean ± S.E.M.), Test Compound-Treated Group ([1]; 10 mg/kg): 49.1 ± 15.59
- response vs control in vivo at 10 mg/kg [1, 3]: 790%
- MLD (minimum lethal dose) (ddY-strain male mice): > 100 mg/kg

Structure (SMILES): CCn1c(=O)c2c(nc(/C=C/c3ccc(OC)c(OC)c3)n2C)n(CC)c1=O [Compound 74, (E)-8-(3,4-Dimethoxystyryl)-1,3-diethyl-7-methylxanthine]
- Number of the Biting Attacks (mean ± S.E.M.), Test Compound-Treated Group ([1]; 0.63 mg/kg): 23.2 ± 5.19
- Number of the Biting Attacks (mean ± S.E.M.), Test Compound-Treated Group ([1]; 2.5 mg/kg): 51.3 ± 8.70
- Number of the Biting Attacks (mean ± S.E.M.), Test Compound-Treated Group ([1]; 10 mg/kg): 73.3 ± 8.75
- response vs control in vivo at 0.63 mg/kg [1, 2]: 380%
- response vs control in vivo at 2.5 mg/kg [1, 4]: 840%
- MLD (minimum lethal dose) (ddY-strain male mice): > 300 mg/kg

Structure (SMILES): CCn1c(=O)c2c(nc(/C=C/c3cc(OC)c(OC)c(OC)c3)n2C)n(CC)c1=O [Compound 4, (E)-1,3-diethyl-7-methyl-8-(3,4,5-trimethoxystyryl)xanthine]
- Number of the Biting Attacks (mean ± S.E.M.), Test Compound-Treated Group ([1]; 0.63 mg/kg): 25.3 ± 4.51
- Number of the Biting Attacks (mean ± S.E.M.), Test Compound-Treated Group ([1]; 2.5 mg/kg): 36.9 ± 7.81
- Number of the Biting Attacks (mean ± S.E.M.), Test Compound-Treated Group ([1]; 10 mg/kg): 51.3 ± 9.37
- response vs control in vivo at 0.63 mg/kg [1, 2]: 970%
- response vs control in vivo at 2.5 mg/kg [1, 4]: 540%
- MLD (minimum lethal dose) (ddY-strain male mice): > 300 mg/kg

Structure (SMILES): CCn1c(=O)c2c(nc(/C=C/c3cccc(Br)c3)n2C)n(CC)c1=O [Compound 162, (E)-8-(3-Bromostyryl)-1,3-diethyl-7-methylxanthine]
- Number of the Biting Attacks (mean ± S.E.M.), Test Compound-Treated Group ([1]; 10 mg/kg): 17.9 ± 6.67
- response vs control in vivo at 10 mg/kg [1, 3]: 850%
- MLD (minimum lethal dose) (ddY-strain male mice): > 100 mg/kg
